Experimental findings from ChEMBL document CHEMBL1201862, “PubChem BioAssay data set” (2004) are described below.

Molecules are shown by their SMILES.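 Dose response: 5 concentrations. Exposure: 48 h. Format: 96-well plates. Endpoint: linear interpolation; highest concentration if not reached. GI50 = concentration required for 50% inhibition of growth.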 Activity calls are given as the source filed them. No stated cut-off is given here; in the data, active = GI50 up to about 1.1 µM and inactive = higher.

Among the test systems are 786-0; A498; ACHN; BT-549; HOP-92; Hs-578T; K562; LOX IMVI; NCI-H23; NCI-H460; NCI-H522; OVCAR-3; RXF 393; SF-268; SK-MEL-5; SR; SW-620; UACC-257; UACC-62; UO-31.
Holding throughout (test): growth of human tumour cells (NCI), 48 h

With `O=C(Nn1c(-c2ccccc2)nc2ccccc2c1=O)c1ccc([N+](=O)[O-])cc1`, the GI50 with 786-0 was > 100 µM (inactive); with A498 it was 46.7 µM (inactive); in the experiment with ACHN, > 100 µM (inactive); in the experiment on BT-549, 55.7 µM (inactive); in the experiment on HOP-92 it was 32.4 µM (inactive); with Hs-578T, > 100 µM (inactive). Also, the GI50 in the experiment with K562, in the experiment with LOX IMVI, in the experiment with NCI-H23, with NCI-H460, in the experiment on NCI-H522 and in the experiment on OVCAR-3 was > 100 µM (inactive) throughout. In addition, the GI50 in the experiment on RXF 393 was 49.2 µM (inactive); with SF-268 it was > 100 µM (inactive); in the experiment on SK-MEL-5, 64.1 µM (inactive); in the experiment on SR it was > 100 µM (inactive); in the experiment with SW-620, > 100 µM (inactive); with UACC-257, > 100 µM (inactive). Besides, the GI50 in the experiment on UACC-62 was 45.2 µM (inactive); in the experiment on UO-31, > 100 µM (inactive).

For `CN(C)CCNCCCNc1c2ccccc2nc2cccc([N+](=O)[O-])c12`, the GI50 in the experiment with 786-0 was < 0.0126 µM (active); in the experiment with A498, 0.021 µM (active); in the experiment with ACHN, 0.017 µM (active); with BT-549 it was 0.157 µM (active); with HOP-92, < 0.0156 µM (active); with Hs-578T, < 0.0386 µM (active). Also, the GI50 was < 0.0119 µM (active) with K562; < 0.0148 µM (active) in the experiment with LOX IMVI; < 0.0121 µM (active) in the experiment with NCI-H23; < 0.0121 µM (active) in the experiment with NCI-H460; < 0.01 µM (active) with NCI-H522; < 0.0157 µM (active) in the experiment with OVCAR-3. Also, the GI50 in the experiment on RXF 393 was 0.0138 µM (active); in the experiment with SF-268, < 0.016 µM (active); in the experiment on SK-MEL-5, < 0.0181 µM (active); in the experiment with SR, < 0.01 µM (active); with SW-620, < 0.0144 µM (active); in the experiment with UACC-257 it was 0.22 µM (active). Further, the GI50 in the experiment with UACC-62 is 0.0446 µM (active); in the experiment with UO-31 it was 0.0741 µM (active).

Take `O=C1C=CC2(C=C1)C[C@H](NC(=O)OCc1ccccc1)C(=O)O2`: the GI50 with 786-0 was 14.3 µM (inactive); in the experiment on A498, > 61.7 µM (inactive); in the experiment with ACHN, 15.8 µM (inactive); in the experiment with BT-549 it was 18 µM (inactive); with HOP-92, 16.3 µM (inactive); in the experiment on Hs-578T, 40.6 µM (inactive). Also, the GI50 in the experiment with K562 was 3.08 µM (inactive); in the experiment with LOX IMVI, 9.93 µM (inactive); in the experiment on NCI-H23, 16.1 µM (inactive); in the experiment on NCI-H460 it was 24.3 µM (inactive); with NCI-H522 it was 3.3 µM (inactive); in the experiment on OVCAR-3, 15.5 µM (inactive). Also, the GI50 in the experiment on RXF 393 is 10.2 µM (inactive); with SF-268 it was 17.2 µM (inactive); in the experiment on SK-MEL-5, 21.9 µM (inactive); with SR, 1.08 µM (active); in the experiment on SW-620, 4.31 µM (inactive); in the experiment on UACC-257, 16.9 µM (inactive). The GI50 is 17.3 µM (inactive) in the experiment with UACC-62 and 20.2 µM (inactive) in the experiment on UO-31.

Take `CC1OC(c2ccc3c(c2O)C(=O)C2=C(C3=O)C3(O)C(=O)CC(C)(O)CC3(O)C=C2)CC(O)C1O` (stereo not given): the GI50 is 16.8 µM (inactive) in the experiment on 786-0; 18.2 µM (inactive) in the experiment with A498; 13.6 µM (inactive) in the experiment on ACHN; 18.7 µM (inactive) in the experiment with BT-549; 14.7 µM (inactive) in the experiment on HOP-92; 20.1 µM (inactive) with Hs-578T. Moreover, the GI50 with K562 was 2.7 µM (inactive); with LOX IMVI, 14 µM (inactive); with NCI-H23 it was 20.6 µM (inactive); in the experiment on NCI-H460, 24.2 µM (inactive); with NCI-H522, 2.34 µM (inactive); with OVCAR-3, 5.35 µM (inactive). The GI50 was 11.4 µM (inactive) in the experiment with RXF 393; 21.2 µM (inactive) with SF-268; 11 µM (inactive) with SK-MEL-5; 10.2 µM (inactive) in the experiment with SR; 7.98 µM (inactive) with SW-620; 15 µM (inactive) in the experiment on UACC-257. For the same molecule, the GI50 was 14.9 µM (inactive) in the experiment with UACC-62 and 17.1 µM (inactive) in the experiment with UO-31.
